Measurements from US20220332799A1, “HERV INHIBITORS FOR USE IN TREATING TAUOPATHIES” (Deutsches Zentrum Für Neurodegenerative Erkrankungen E.V. …, priority 2019, published 2022).

Legend:
MuERV env and gag mRNA = assay: qRT-PCR of MuERV env and gag transcripts in donor clone s2E; type: cell-based, mouse; conditions: s2E P1 donors, Aza 200 nM or Dec 100 nM, then 5 days without drug, vs DMSO
Experimental: To inhibit methyltransferases, s2E P1 donor cells were treated for three days with methyltransferase inhibitors 5-Azacytidine (Aza) 200 nM, Decitabine (Dec) 100 nM or DMSO as solvent control. Subsequently, the cells were cultured in the absence of the drugs for 5 days. Pre-treated donor cells were subsequently cocultured with recipient cells as described above to monitor aggregate induction efficiency in recipient N2a NM-GFP^sol cells. Cell lysates of donor cells were also analyzed for MuERV Env and Gag expression levels by western blot. To increase DNA methylation, the s2E donor clone (P21) was treated with methyl group donors L-methionine (L-M) 80 mM, Betaine (B) 80 mM, Choline chloride (CC) 20 mM or medium control for 6 days. MuERV Env and Gag protein levels were analyzed by western blot. Subsequently, cells were cocultured with recipient cells for 16 h. The percentage of aggregate containing recipient cells was compared to the percentage of aggregate bearing recipients cocultured with solvent-treated donors. […]
Total RNA from cell pellets or brain samples was isolated using the RNeasy Mini Kit or RNeasy Lipid Tissue Mini Kit (Qiagen). RNA concentration and quality were determined using the Agilent 2100 Bioanalyzer System. For a 20 μl reaction, 1 μg RNAs were reversely transcribed to cDNA using the iScript™ cDNA Synthesis Kit (Bio-Rad). For a 20 μl qRT-PCR reaction, 2 μl of synthesized cDNA was used as template. For qRT-PCR of murine env AA037244.2 and gag AID54952, custom designed TaqMan probes were used (Thermo Fisher Scientific). Pre-designed TaqMan probes by the company for murine pan-env, xpr1, mcat-1 and gapdh as housekeeping control and TaqMan™ Gene Expression Master Mix (Thermo Fisher Scientific) were used. qRT-PCR using TaqMan probes was performed as described in the manufacturer's instruction. For qRT-PCR analyses of HERV family members, primers were designed using the corresponding cDNA sequences (cf. SEQ ID NOs. 73-92). PowerUP SYBR™ Green Master Mix (Thermo Fisher Scientific) was mixed with different cDNAs and corresponding primers as indicated in the instruction. The fast cycling mode was used for all primers.

HEK Tau-FRsol cells = assay: Tau-FR aggregate induction by coculture with MCF-7 Tau-GFPAD donor cells; type: cell-based, human; conditions: donors pretreated with 2 μM for 4 d; coculture 3 d without drug; vs DMSO
Experimental: FIG. 14: Human endogenous retroviruses contribute to the spreading of protein aggregates. • a. Experimental workflow. A human breast cancer cell line MCF-7 (4) was engineered to stably express Tau-GFP and induced to propagate Tau aggregates by exposure to Alzheimer's disease brain homogenate (AD). A single cell clone was subsequently isolated and used in the experiment (MCF-7 Tau-GFPAD). This donor clone was treated with 2 μM 5-Aza-2-deoxycytidine (Aza) for 4 d to de-repress HERV expression. Pretreated donor cells were cocultured with HEK-Tau-FRsol cells. • b. […] Statistics: Unpaired Student's t-test (n=3). • c. Quantitative analysis of recipient cells with induced Tau-FR aggregates following coculture with DMSO-treated or Aza-treated donor cells. […] Recipients were subsequently cocultured with transduced donors that had been passaged at least 5 times post transduction. • e. shRNA-mediated downregulation of Syncytin-1 mRNA in MCF-7 Tau-GFPAD cells assessed by quantitative real-time PCR. […] Quantitative analysis of recipient cells with induced Tau-FR aggregates following coculture with donors with decreased HERV-W Syncytin-1 expression. […]
To inhibit methyltransferase, MCF-7 Tau-GFPAD cells were treated with 2 μM Aza or DMSO for 4 d. […] Afterwards, the total numbers of viable cells and the viability upon drug treatments were determined using the Vi-VELLTMXR Cell Viability Analyzer (Beckman Coulter). […]

Nc1ncn([C@H]2C[C@H](O)[C@@H](CO)O2)c(=O)n1 [Decitabine, 5-aza-2′-deoxycytidine]
expression of total env and gag mRNA (MuERV env and gag mRNA): increased expression of total env and gag mRNA
expression of total env and gag mRNA (MuERV env and gag mRNA; listed as 5-aza-2′-deoxycytidine): Increased expression of MuERV env (f), gag (h) and pan-env (g) transcripts
recipient cells with induced Tau-FR aggregates in cocultures (HEK Tau-FRsol cells): increased recipient cells with aggregates in cocultures
